Experimental data: PMC6368403, “Identification of a bilirubin receptor that may mediate a component of cholestatic itch” (eLife, 2019)
“And” between values parts separate entries of the source, which are not always exact repeats. Equal entries are not always repeated.

Key:
MRGPRC11 [1] = molecular target: T1, MRGPRC11 (Mus musculus, UniProt Q8CIP3); assay: Ca2+ imaging and concentration-Ca2+ response in HEK293 cells expressing MRGPRC11; type: cell-based; settings: three replicates, Fig 2-N
T1 construct: expressed in transfected cells
T1 sequence (Q8CIP3 1-322): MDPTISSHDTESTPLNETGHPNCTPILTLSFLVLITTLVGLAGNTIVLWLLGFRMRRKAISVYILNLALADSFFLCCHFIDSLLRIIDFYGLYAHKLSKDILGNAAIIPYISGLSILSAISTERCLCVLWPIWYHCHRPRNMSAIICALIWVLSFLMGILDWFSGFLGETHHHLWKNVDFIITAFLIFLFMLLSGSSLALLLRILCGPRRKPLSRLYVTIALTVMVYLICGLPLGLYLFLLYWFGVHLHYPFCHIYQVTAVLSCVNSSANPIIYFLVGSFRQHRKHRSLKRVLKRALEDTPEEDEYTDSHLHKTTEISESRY
Description: (§1) All cultured cells were maintained in DMEM supplemented with 10% FBS and 1% Penicillin/Streptomycin at 37°C, 5% CO2. All data included were generated from cells tested for mycoplasma and found to be negative. Cells were imaged in calcium imaging buffer (CIB; 10 mM HEPES, 1.2 mM NaHCO3, 130 mM NaCl, 3 mM KCl, 2.5 mM CaCl2, 0.6 mM MgCl2, 20 mM glucose, and 20 mM sucrose at pH 7.4 and 290–300 mOsm). To monitor changes in intracellular [Ca^2+] ([Ca^2+]i), cells were loaded with either Fura 2-AM (HEK293 cells) or Fluo 4-AM (DRG neurons and mast cells) for 30 min in the dark at 37°C in CIB just prior to imaging. With Fura 2-AM, emission at 510 nm was monitored from excitation at both 340 nm and 380 nm. With Fluo 4-AM, emission at 520 nm was monitored from excitation at 488 nm. Cells were identified as responding if the intracellular [Ca^2+] rose by either 50% compared to baseline or 50% compared to the [Ca^2+]i change assayed during addition of 50 mM KCl (neurons only). Damaged, detached, high-baseline, and motion-activated cells were excluded from analysis.
(§2) In initial screens, HEK293 cells stably expressing the murine G-protein alpha-subunit Gα15, a unique Gα protein that non-selectively couples a large variety of GPCRs to phospholipase C ^30, were plated on poly-D-lysine-coated coverslips and transiently transfected with constructs encoding the MRGRPR of interest. 12–24 hr later, cells were loaded with the Fura 2-AM. Unless otherwise specified, compounds were perfused into the imaging chamber for approximately thirty seconds after a baseline period was established. Response was then monitored at 5 s intervals for an additional 60 s.
(§3) HEK293 cells stably expressing either MRGPRA1, MRGPRX4, and MRGRPC11 were seeded in poly-D-lysine-coated 96-well plates at 10,000 cells/well. Cells were loaded with Fura 2–AM, washed twice, and maintained in CIB. Haem metabolites were freshly dissolved in DMSO in dim light and then diluted into a buffer comprised of 20 mM Tris and 150 mM NaCl at pH 8.8. Potential changes in pH were evaluated prior to each experiment. EC50 values were determined from dose-responses performed in triplicate, repeated 2–4 times. To determine potential antagonism by QWF against bilirubin, cells were treated with varying doses of QWF for 1 min in CIB prior to application of agonist.
(§4) HEK293 stable cell lines expressing GFP-tagged MRGPRA3, MRGPRC11, MRGPRD, MRGPRX1, and MRGPRX2 were generated in previously described reports ([Liu et al., 2009]; [Liu et al., 2012]; [McNeil et al., 2015]). Briefly, plasmids containing the receptor of interest were transfected into HEK cells using Lipofectamine 3000. After 3 days, cells were then selected using 0.5 mg/mL G418. After 3 weeks, monoclonal colonies were established and each the highest expressing clones were identified. For this study, Mrgpra1 and MRGPRX4 were inserted into pEGFP-N1 and transfected into HEK293 cells. MRGPR-positive cells were selected using 0.5 mg/mL G418 for three weeks, after which GFP-positive cells were sorted by FACS and monoclonally expanded. Two lines expressing similar levels of MRGPRA1 and MRGPRX4, as measured by GFP fluorescence, were selected for study.

MRGPRC11 [2] = molecular target: T1, MRGPRC11; assay: Microscale thermophoresis binding to MRGPRC11; settings: mean of n=3, Fig 2-O
Description: Binding isotherms for MRGPRA1, MRGPRX4, and MRGRPC11 towards various ligands were determined by microscale thermophoresis with the NanoTemper monolith NT.115 instrument ([Duhr and Braun, 2006]). Ligands were pre-incubated with 10 µM of the GFP-tagged receptor of interest for 5 min at room temperature in binding buffer (20 mM Tris and 150 mM NaCl at pH 8.8). Receptors were crudely purified as a membrane fraction from cells stably expressing the receptor ([Vasavda et al., 2017]). Haem metabolites were freshly dissolved in 0.1 M NaOH in dim light and then diluted into assay buffer. Lyophilized BAM8-22 was dissolved in binding buffer. The pH of each ligand was evaluated prior to incubation with a receptor. Samples were loaded into NT.115 Hydrophobic-Treated Capillaries from NanoTemper. Microscale thermophoretic experiments were executed using 20% LED power and 15% MST power. KDs were calculated using the law of mass action with data from three independent experiments. Binding between bilirubin and receptors was evaluated purely thermophoretically, whereas binding between BAM8-22 and MRGPRC11 was evaluated by T-Jump. Samples with dramatic deviations in initial fluorescence were excluded.

mice = assay: Scratching bouts after subcutaneous injection into the nape of the neck / back; type: in vivo, mouse; settings: metabolite injected into mice (Fig 1D)
Description: All applicable behavioral tests were performed and analysed with the experimenter blind to genotype. […] On the day before the experiment, animals were placed in the test chamber for 30 min before being subjected to a series of three mock injections with 5 min break periods in between. On the day of the experiment, animals were first allowed to acclimatize to the test chamber for 10 min before injection. […] A bout of scratching was defined as a continuous scratching movement with either hindpaw directed at the area of the injection site. In the cheek injection model, a wipe was defined as a single forepaw stroking the site of the injection. Use of both forepaws on the face or cheek was considered as grooming behavior. […] For H1R block, 30 mg/kg of cetirizine HCl (pH 7.4) was given intraperitoneally thirty minutes prior to injection of bilirubin. Licking behavior was quantified in seconds and identified as the licking of the toes or footpad of the hind paw site of injection that was neither preceded nor followed by licking of any other portion of the body.

MRGPRA1 = molecular target: T2, MRGPRA1 (Mus musculus, UniProt Q91WW5); assay: Ca2+ imaging and concentration-Ca2+ response (EC50) in HEK293 cells expressing MRGPRA1; type: cell-based; settings: MRGPRA1, triplicate wells (Fig 2D)
T2 construct: expressed in transfected cells
T2 sequence (Q91WW5 1-304): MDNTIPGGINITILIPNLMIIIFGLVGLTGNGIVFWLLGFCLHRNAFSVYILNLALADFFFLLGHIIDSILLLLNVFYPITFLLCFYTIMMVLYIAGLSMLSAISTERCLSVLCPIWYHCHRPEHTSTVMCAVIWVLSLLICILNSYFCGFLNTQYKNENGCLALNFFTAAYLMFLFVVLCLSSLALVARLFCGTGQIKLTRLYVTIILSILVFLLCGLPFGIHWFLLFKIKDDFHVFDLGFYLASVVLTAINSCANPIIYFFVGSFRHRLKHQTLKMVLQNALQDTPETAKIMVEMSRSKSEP
Description: as §1, §2, §3, §4

MRGPRX4 = molecular target: T3, MRGPRX4 (Homo sapiens, UniProt Q96LA9); assay: Ca2+ imaging and concentration-Ca2+ response (EC50) in HEK293 cells expressing MRGPRX4; type: cell-based; settings: MRGPRX4, triplicate wells (Fig 2I)
T3 construct: expressed in transfected cells
Description: as §1, §2, §3, §4

T3 sequence (Q96LA9 whole entry): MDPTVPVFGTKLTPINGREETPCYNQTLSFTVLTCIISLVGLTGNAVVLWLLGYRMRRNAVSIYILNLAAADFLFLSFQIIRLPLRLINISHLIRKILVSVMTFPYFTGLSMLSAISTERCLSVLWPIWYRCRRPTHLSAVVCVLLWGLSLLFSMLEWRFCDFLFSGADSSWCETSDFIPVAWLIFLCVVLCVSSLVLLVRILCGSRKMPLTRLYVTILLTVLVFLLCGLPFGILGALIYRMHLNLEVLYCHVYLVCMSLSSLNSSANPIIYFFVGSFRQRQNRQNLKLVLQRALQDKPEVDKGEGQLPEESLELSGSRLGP

For BAM8-22 [reference compound], the “Ca2+ response (concentration-Ca2+ response curve), replicate values” (“Ca2+ response … replicate values” below) (MRGPRC11 [1]; [Ligand] 1.95313e-7 M) was 1.675 (2×) and 1.799, the “Ca2+ response … replicate values” (MRGPRC11 [1]; [Ligand] 3.90625e-7 M) was 1.633 and 1.596 and 1.826 and the “Ca2+ response … replicate values” (MRGPRC11 [1]; [Ligand] 7.8125e-7 M) was 1.6619 and 1.688 and 1.837. The “Ca2+ response … replicate values” (MRGPRC11 [1]; [Ligand] 1.5625e-6 M) was 1.91 and 1.851 and 1.839, the “Ca2+ response … replicate values” (MRGPRC11 [1]; [Ligand] 3.125e-6 M) was 2.508 and 1.957 and 1.844 and the “Ca2+ response … replicate values” (MRGPRC11 [1]; [Ligand] 6.25e-6 M) was 2.578 and 3.436 and 2.313. For the same compound, the “Ca2+ response … replicate values” (MRGPRC11 [1]; [Ligand] 1.25e-5 M) was 4.631 and 2.839 and 3.888, the “Ca2+ response … replicate values” (MRGPRC11 [1]; [Ligand] 2.5e-5 M) was 3.332 and 3.664 and 3.933 and the “microscale thermophoresis response (binding isotherm), mean” value (from here on “microscale thermophoresis response”) (MRGPRC11 [2]; [Ligand] 4.88e-8 M) was 0.2221. The “microscale thermophoresis response” value (MRGPRC11 [2]; [Ligand] 9.77e-8 M) was 0.7996, the “microscale thermophoresis response” value (MRGPRC11 [2]; [Ligand] 1.953e-7 M) was 0.1618 and the “microscale thermophoresis response” value (MRGPRC11 [2]; [Ligand] 3.906e-7 M) was -0.3098. The “microscale thermophoresis response” value (MRGPRC11 [2]; [Ligand] 7.813e-7 M) was -0.7916, the “microscale thermophoresis response” value (MRGPRC11 [2]; [Ligand] 1.5625e-6 M) was -0.6624 and the “microscale thermophoresis response” value (MRGPRC11 [2]; [Ligand] 3.125e-6 M) was -0.9001. The “microscale thermophoresis response” value (MRGPRC11 [2]; [Ligand] 6.25e-6 M) was -0.5948, the “microscale thermophoresis response” value (MRGPRC11 [2]; [Ligand] 1.25e-5 M) was -2.488 and the “microscale thermophoresis response” value (MRGPRC11 [2]; [Ligand] 2.5e-5 M) was -2.079. The “microscale thermophoresis response” value (MRGPRC11 [2]; [Ligand] 5e-5 M) was -2.779 and the “microscale thermophoresis response” value (MRGPRC11 [2]; [Ligand] 0.0001 M) was -3.797.
With `C=CC1=C(C)/C(=C/C2=NC(=C\c3[nH]c(/C=C4\NC(=O)C(C)=C4C=C)c(C)c3CCC(=O)O)/C(CCC(=O)O)=C2C)NC1=O` [biliverdin] the “Scratching behavior” value (mice) was “did not induce scratching”, the “Ca2+ response (concentration-response curve)” value (MRGPRA1; [Ligand] 7.8125e-6 M) was 0 and the “Ca2+ response (concentration-response curve)” value (MRGPRA1; [Ligand] 1.5625e-5 M) was 0. The “Ca2+ response (concentration-response curve)” value (MRGPRA1; [Ligand] 3.125e-5 M) was 0, the “Ca2+ response (concentration-response curve)” value (MRGPRA1; [Ligand] 6.25e-5 M) was 0 and the “Ca2+ response (concentration-response curve)” value (MRGPRA1; [Ligand] 0.000125 M) was 0. For the same compound, the “Ca2+ response (concentration-response curve)” value (MRGPRA1; [Ligand] 0.00025 M) was 0, the “Ca2+ response (concentration-response curve)” value (MRGPRA1; [Ligand] 0.0005 M) was 0 and the “Ca2+ response (concentration-response curve)” value (MRGPRA1; [Ligand] 0.001 M) was 0. For the same compound, the “Ca2+ response (concentration-response curve)” value (MRGPRX4; [Ligand] 7.8125e-6 M) was 0, the “Ca2+ response (concentration-response curve)” value (MRGPRX4; [Ligand] 1.5625e-5 M) was 0 and the “Ca2+ response (concentration-response curve)” value (MRGPRX4; [Ligand] 3.125e-5 M) was 0. For the same compound, the “Ca2+ response (concentration-response curve)” value (MRGPRX4; [Ligand] 6.25e-5 M) was 0, the “Ca2+ response (concentration-response curve)” value (MRGPRX4; [Ligand] 0.000125 M) was 0 and the “Ca2+ response (concentration-response curve)” value (MRGPRX4; [Ligand] 0.00025 M) was 0. The “Ca2+ response (concentration-response curve)” value (MRGPRX4; [Ligand] 0.0005 M) was 0 and the “Ca2+ response (concentration-response curve)” value (MRGPRX4; [Ligand] 0.001 M) was 0.
